# Data published in the supplement of paper PMC3493320.
# Assays:
# NCI-H295R [1] = assay: IC50 (antiproliferative, ATP content); conditions: 48 h
# NCI-H295R [2] = assay: maximal response (efficacy) relative to DMSO (0%) and doxorubicin (-100%); higher = less growth inhibition; conditions: 48 h
IC50 (NCI-H295R [1]),SMILES,maximal response (NCI-H295R [2])
7.5 µM,CCN(CC)CCNc1ccc(CO)c2sc3ccccc3c(=O)c12,-124%
21.1 µM,CN(C)C3=CC=C(C=C3)/C(C2=CC=C(N(C)C)C=C2)=C(C=C1)/C=C/C1=N/C,-167%
29.9 µM,CCOC(=O)N1CCC(=C2c3ccc(Cl)cc3CCc3cccnc32)CC1,-151%
21.1 µM,C[n+]1c2cc(N)ccc2cc2ccc(N)cc21.Nc1ccc2cc3ccc(N)cc3nc2c1.[Cl-],-168%
4.53 µM,C/C=C(/C(=C/C)c1ccc(O)cc1)c1ccc(O)cc1,-68.5%
4.22 µM,CC[C@H](C)[C@H]1O[C@]2(CC[C@@H]1C)C[C@@H]1C[C@@H](C/C=C(\C)[C@@H](O[C@H]3C[C@H](OC)[C@@H](O[C@H]4C[C@H](OC)[C@@H](O)[C@H](C)O4)[C@H](C)O3)[C@@H](C)/C=C/C=C3\CO[C@@H]4[C@H](O)C(C)=C[C@@H](C(=O)O1)[C@]34O)O2,-123%
21.1 µM,CC(=O)Nc1ccc(NC(=S)NC(=O)c2ccc(C(C)(C)C)cc2)cc1,-151%
15 µM,Oc1ccc(Cl)cc1Sc1cc(Cl)ccc1O,-135%
2.66 µM,Nc1nc(N)c2nc(-c3ccccc3)c(N)nc2n1,-89.3%
3.35 µM,O=[N+]([O-])c1ccc(O)c2ncccc12,-85.4%
16.8 µM,CC(C)(O)c1ccccc1CC[C@@H](SCC1(CC(=O)[O-])CC1)c1cccc(/C=C/c2ccc3ccc(Cl)cc3n2)c1.[Na+],-142%
9.44 µM,CC1=C(/C=C/C(C)=C/C=C/C(C)=C/C(=O)Nc2ccc(O)cc2)C(C)(C)CCC1,-125%
11.9 µM,Cn1cnc([N+](=O)[O-])c1Sc1ncnc2nc[nH]c12,-82.1%
23.7 µM,COc1ccc(C=CC(=O)c2ccc(OC)cc2OC)cc1,-117%
21.1 µM,COc1ccc(CN2CCN(C(c3ccc(F)cc3)c3ccc(F)cc3)CC2)c(OC)c1OC,-95.1%
1.19 µM,COC(C(=O)C(O)C(C)O)C1Cc2cc3cc(OC4CC(OC5CC(O)C(O)C(C)O5)C(O)C(C)O4)c(C)c(O)c3c(O)c2C(=O)C1OC1CC(OC2CC(OC3CC(C)(O)C(O)C(C)O3)C(O)C(C)O2)C(O)C(C)O1 (stereo not given),-125%

IC50 (NCI-H295R [1]),SMILES,maximal response (NCI-H295R [2])
8.41 µM,Oc1c(I)cc(Cl)c2cccnc12,-64.3%
5.31 µM,Oc1c(I)cc(I)c2cccnc12,-82.7%
18.8 µM,O=c1c(-c2ccccc2)c1-c1ccccc1,-142%
11.9 µM,O=C1NCN(c2ccccc2)C12CCN(CCCC(c1ccc(F)cc1)c1ccc(F)cc1)CC2,-137%
15 µM,CCN1C(=CC=Cc2sc3ccccc3[n+]2CC)Sc2ccccc21.[I-],-149%
23.7 µM,CC1=CC(=O)c2ccccc2C1=O,-158%
11.9 µM,O=S(=O)([O-])c1cc(O)c2c(N=Nc3ccc(Nc4ccccc4)c4c(S(=O)(=O)[O-])cccc34)cc(S(=O)(=O)[O-])cc2c1.[Na+].[Na+].[Na+],-73.8%
5.96 µM,O=C(Nc1cccc(C(F)(F)F)c1)c1cc(Br)cc(Br)c1O,-140%
7.5 µM,O=C(OC[C@H]1O[C@@H](OC(=O)c2cc(O)c(O)c(OC(=O)c3cc(O)c(O)c(O)c3)c2)[C@H](OC(=O)c2cc(O)c(O)c(OC(=O)c3cc(O)c(O)c(O)c3)c2)[C@@H](OC(=O)c2cc(O)c(O)c(OC(=O)c3cc(O)c(O)c(O)c3)c2)[C@@H]1OC(=O)c1cc(O)c(O)c(OC(=O)c2cc(O)c(O)c(O)c2)c1)c1cc(O)c(O)c(OC(=O)c2cc(O)c(O)c(O)c2)c1,-122%
21.1 µM,COc1cc(C(=O)NS(=O)(=O)c2ccccc2C)ccc1Cc1cn(C)c2ccc(NC(=O)OC3CCCC3)cc12,-134%
0.64 µM,Cc1cc(C2CCCCC2)n(O)c(=O)c1.NCCO,-61.1%
3.76 µM,COc1cc(N[S+](C)(=O)[O-])ccc1Nc1c2ccccc2nc2ccccc12,-65.5%
26.6 µM,CC1(COc2ccc(CC3SC(=O)NC3=O)cc2)CCCCC1 (stereo not given),-167%
26.6 µM,C=C1CC[C@H](O)C/C1=C/C=C1\CCC[C@]2(C)[C@@H]([C@H](C)CCCC(C)(C)O)CC[C@@H]12,-166%
13.3 µM,Oc1c(Cl)cc(Cl)cc1Sc1cc(Cl)cc(Cl)c1O,-137%

SMILES,IC50 (NCI-H295R [1]),maximal response (NCI-H295R [2])
CC[C@@H](C(=O)[C@@H](C)[C@@H](O)[C@H](C)[C@@H]1O[C@@H]([C@@H](CC)C(=O)[O-])CC[C@@H]1C)[C@H]1O[C@]2(C=C[C@@H](O)[C@]3(CC[C@@](C)([C@H]4CC[C@](O)(CC)[C@H](C)O4)O3)O2)[C@H](C)C[C@@H]1C.[Na+],13.3 µM,-80.1%
CO[C@@H]1[C@H](C)O[C@@H](O[C@H]2C[C@@H](Oc3cc4cc5c(c(O)c4c(O)c3C)C(=O)[C@H](O[C@@H]3C[C@H](O[C@@H]4C[C@H](O[C@@H]6C[C@@](C)(O)[C@H](OC(C)=O)[C@@H](C)O6)[C@@H](O)[C@H](C)O4)[C@@H](O)[C@H](C)O3)[C@@H]([C@@H](OC)C(=O)[C@H](O)[C@H](C)O)C5)O[C@@H](C)[C@H]2OC(C)=O)C[C@@H]1O,1.06 µM,-111%
CC(=O)[O][Hg][c]1ccccc1,2.99 µM,-126%
c1ccc2c(c1)OCC(C1=NCCN1)O2 (stereo not given),18.8 µM,-106%
Oc1cc[c]([Hg][Cl])cc1,2.66 µM,-130%
COP(=S)(OC)Oc1ccc(Sc2ccc(OP(=S)(OC)OC)cc2)cc1,21.1 µM,-96.4%
[C@@]82([C@@]([C@@H](/C1=C/C(=O)OC1)CC2)(CC[C@@H]9[C@]7(CCC(O[C@@H]3O[C@@H]([C@H]([C@H](C3)O)O[C@@H]6O[C@@H]([C@@H](O[C@@H]5O[C@@H]([C@@H](O[C@H]4[C@@H]([C@@H](O)[C@@H]([C@H](O4)CO)O)O)[C@H](C5)OC(=O)C)C)[C@H](C6)O)C)C)C[C@H]7CC[C@@H]89)C)C)O (stereo not given in full),0.188 µM,-114%
O.O.[Na+].[Na+].[O]=[Cr](=[O])([O-])[O][Cr](=[O])(=[O])[O-],11.9 µM,-147%
CNC(=O)c1cc(Oc2ccc(NC(=O)Nc3ccc(Cl)c(C(F)(F)F)c3)cc2)ccn1.Cc1ccc(S(=O)(=O)O)cc1,10.6 µM,-129%
